# pIC50: −log10 of the molar value. Counter-ions that a name gives are not always drawn.
# Target: T1, recombinant human MetAP2 (Homo sapiens, UniProt P50579)
# T1 construct: Flag; made in house; host or cells: Sf9 insect cells
# Experiment: Inhibition of recombinant human MetAP2 activity (Amplex red fluorescence assay)
# Type: biochemical
# Conditions: manganese Flag-MetAP2, 0.75 mM Methionine-Alanine-Serine substrate, 30 minutes at 25° C., pH 7.5, 1% DMSO
# Experimental: Compounds are tested for their capacity to inhibit recombinant human MetAP2 activity using the following assay.
# Human recombinant Flag-MetAP2 expressed in Sf9 cells followed by affinity purification and EDTA treatment to remove endogenous active site cation is dialysed against MnCl2 to produce the manganese enzyme used in the assay. The assay is carried out for 30 minutes at 25° C. in 50 mM HEPES buffer containing 100 mM NaCl, pH 7.5 the presence of 0.75 mM Methionine-Alanine-Serine (MAS) substrate and 50 μg/ml amino acid oxidase using a dilution of purified MetAP2 giving approximately 50,000 RFU control activity. Cleavage of the substrate by MetAP2 and oxidation of free methionine by amino acid oxidase is detected and quantified using fluorescence generated by Amplex red (10-acetyl-3,7-dihydroxyphenoxazine) in combination with horseradish peroxidase which detects H2O2 released during the oxidation step. The fluorescent signal is detected using a multiwell fluorimeter. Compounds are diluted in DMSO prior to addition to assay buffer, the final DMSO concentration in the assay being 1%.
# The IC50 is defined as the concentration at which a given compound achieves 50% inhibition of control. IC50 values are calculated using the XLfit software package (version 2.0.5).
# T1 sequence (P50579 whole entry): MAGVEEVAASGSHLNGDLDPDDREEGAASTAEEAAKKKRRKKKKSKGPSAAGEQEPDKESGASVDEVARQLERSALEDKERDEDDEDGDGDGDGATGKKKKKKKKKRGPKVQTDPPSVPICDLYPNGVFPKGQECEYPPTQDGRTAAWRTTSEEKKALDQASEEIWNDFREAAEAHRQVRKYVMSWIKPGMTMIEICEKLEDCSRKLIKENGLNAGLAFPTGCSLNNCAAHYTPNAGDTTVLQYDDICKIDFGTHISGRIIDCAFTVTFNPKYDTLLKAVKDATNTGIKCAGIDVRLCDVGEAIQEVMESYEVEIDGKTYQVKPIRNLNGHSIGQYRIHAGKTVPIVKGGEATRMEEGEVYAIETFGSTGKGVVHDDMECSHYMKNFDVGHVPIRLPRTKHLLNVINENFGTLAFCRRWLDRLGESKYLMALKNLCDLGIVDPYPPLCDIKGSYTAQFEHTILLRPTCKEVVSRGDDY
row,SMILES,pIC50
1,COc1ccccc1S(=O)(=O)Cc1ccc(-c2ccoc2)c(OCCN)c1C(=O)O [2-(2-Aminoethoxy)-3-(furan-3-yl)-6-(2-methoxybenzenesulphonyl-methyl)benzoic acid hydrochloride],5.70 to 6.70
2,CCc1ccc(CS(=O)(=O)c2ccccc2)c(C(=O)O)c1OCCN [2-(2-Aminoethoxy)-3-ethyl-6-benzenesulphonylmethylbenzoic acid hydrochloride],> 6.70
3,NCCOc1c(-c2ccoc2)ccc(CS(=O)(=O)c2cccc(Cl)c2)c1C(=O)O [2-(2-Aminoethoxy)-6-(3-chlorobenzenesulphonylmethyl)-3-(furan-3-yl)benzoic acid hydrochloride],> 6.70
4,NCCOc1c(-c2ccoc2)ccc(CS(=O)(=O)c2ccc(F)cc2)c1C(=O)O [2-(2-Aminoethoxy)-6-(4-fluorobenzenesulphonylmethyl)-3-(furan-3-yl)benzoic acid hydrochloride],> 6.70
5,NCCOc1c(-c2ccoc2)ccc(CS(=O)(=O)c2ccccc2)c1C(=O)O [2-(2-Aminoethoxy)-6-(benzenesulphonylmethyl)-3-(furan-3-yl)benzoic acid hydrochloride],> 6.70
6,NCCNc1c(-c2ccoc2)ccc(CS(=O)(=O)c2ccccc2)c1C(=O)O [2-(2-Aminoethylamino)-6-benzenesulphonylmethyl-3-(furan-3-yl)-benzoic acid hydrochloride],< 5.70
7,CC(N)COc1c(-c2ccoc2)ccc(CS(=O)(=O)c2ccccc2)c1C(=O)O (stereo not drawn) [2-(2-Aminopropoxy)-6-(benzenesulphonylmethyl)-3-(furan-3-yl)-benzoic acid hydrochloride],< 5.70
8,NCCCOc1c(-c2ccoc2)ccc(CS(=O)(=O)c2ccccc2)c1C(=O)O [2-(3-Aminopropoxy)-6-(benzenesulphonylmethyl)-3-(furan-3-yl)benzoic acid hydrochloride],5.70 to 6.70
9,NCCCc1c(-c2ccoc2)ccc(CS(=O)(=O)c2ccccc2)c1C(=O)O [2-(3-Aminopropyl)-6-(benzenesulphonylmethyl)-3-(furan-3-yl)-benzoic acid hydrochloride],< 5.70
10,O=C(O)c1c(CS(=O)(=O)c2ccccc2)ccc(-c2ccoc2)c1OC1CNC1 [2-(Azetidin-3-yloxy)-6-(benzenesulphonylmethyl)-3-(furan-3-yl)-benzoic acid hydrochloride],< 5.70
11,Cn1nccc1-c1ccc(CS(=O)(=O)c2ccccc2)c(C(=O)O)c1 [2-(Benzenesulphonylmethyl)-5-(2-methyl-2H-pyrazol-3-yl)benzoic acid],< 5.70
12,Cc1occc1-c1ccc(CS(=O)(=O)c2ccccc2)c(C(=O)O)c1 [2-(Benzenesulphonylmethyl)-5-(2-methylfuran-3-yl)benzoic acid],5.70 to 6.70
13,O=C(O)c1cc(-c2ccoc2)ccc1CS(=O)(=O)c1ccccc1 [2-(Benzenesulphonylmethyl)-5-(furan-3-yl)benzoic acid],5.70 to 6.70
14,O=C(O)c1cc(-c2cnco2)ccc1CS(=O)(=O)c1ccccc1 [2-(Benzenesulphonylmethyl)-5-(oxazol-5-yl)benzoic acid],< 5.70
15,CCc1ccc(CS(=O)(=O)c2ccccc2)c(C(=O)O)c1 [2-(Benzenesulphonylmethyl)-5-ethylbenzoic acid],5.70 to 6.70
16,COc1cccc(CS(=O)(=O)c2ccccc2)c1C(=O)O [2-(Benzenesulphonylmethyl)-6-methoxybenzoic acid],< 5.70
17,COc1cccc2ccc(CS(=O)(=O)c3ccccc3)c(C(=O)O)c12 [2-(Benzenesulphonylmethyl)-8-methoxynaphthalene-1-carboxylic acid],< 5.70
18,O=C(O)c1c(CS(=O)(=O)c2ccccc2)ccc2ccccc12 [2-(Benzenesulphonylmethyl)naphthalene-1-carboxylic acid],5.70 to 6.70
19,COc1cccc(CS(=O)(=O)c2ccccc2C)c1C(=O)O [2-Methoxy-6-(2-methylbenzenesulphonylmethyl)benzoic acid],< 5.70
20,COc1ccccc1S(=O)(=O)Cc1ccc(-c2ccoc2)c(OC)c1C(=O)O [3-(Furan-3-yl)-2-methoxy-6-(2-methoxybenzenesulphonylmethyl)-benzoic acid],5.70 to 6.70
21,COc1c(-c2ccoc2)ccc(CS(=O)(=O)c2ccccc2C)c1C(=O)O [3-(Furan-3-yl)-2-methoxy-6-(2-methyl-benzenesulphonylmethyl)benzoic acid],5.70 to 6.70
22,COc1c(-c2ccoc2)ccc(CS(=O)(=O)N2CCCCC2)c1C(=O)O [3-(Furan-3-yl)-2-methoxy-6-(piperidine-1-ylsulphonylmethyl)benzoic acid],> 6.70
23,COc1c(-c2ccoc2)ccc(CS(=O)(=O)c2ccccn2)c1C(=O)O [3-(Furan-3-yl)-2-methoxy-6-(pyridin-2-ylsulphonylmethyl)benzoic acid],> 6.70

row,SMILES,pIC50
1,COc1c(-c2ccoc2)ccc(CS(=O)(=O)c2cccnc2)c1C(=O)O [3-(Furan-3-yl)-2-methoxy-6-(pyridin-3-ylsulphonylmethyl)benzoic acid],5.70 to 6.70
2,COc1c(-c2ccoc2)ccc(CS(=O)(=O)N2CCCC2)c1C(=O)O [3-(Furan-3-yl)-2-methoxy-6-(pyrrolidin-1-ylsulphonylmethyl)-benzoic acid],5.70 to 6.70
3,CN=S(=O)(Cc1ccc(-c2ccoc2)c(OC)c1C(=O)O)c1ccccc1 (stereo not drawn) [3-(Furan-3-yl)-2-methoxy-6-[(N-methyl-S-phenylsulphonimidoyl)methyl]benzoic acid],5.70 to 6.70
4,COc1c(-c2ccoc2)ccc(CS(=N)(=O)c2ccccc2)c1C(=O)O (stereo not drawn) [3-(Furan-3-yl)-2-methoxy-6-[(S-phenylsulphonimidoyl)methyl]benzoic acid],5.70 to 6.70
5,COc1c(-c2ccoc2)ccc(CS(=O)(=O)c2ccccc2O)c1C(=O)O [3-(Furan-3-yl)-6-(2-hydroxybenzenesulphonylmethyl)-2-methoxybenzoic acid],> 6.70
6,COc1c(-c2ccoc2)ccc(CS(=O)(=O)c2cccc(O)c2)c1C(=O)O [3-(Furan-3-yl)-6-(3-hydroxybenzenesulphonylmethyl)-2-methoxy-benzoic acid],5.70 to 6.70
7,COc1c(-c2ccoc2)ccc(CS(=O)(=O)N2CCC(O)C2)c1C(=O)O (stereo not drawn) [3-(Furan-3-yl)-6-(3-hydroxypyrrolidine-1-ylsulphonylmethyl)-2-methoxybenzoic acid],5.70 to 6.70
8,COc1cccc(S(=O)(=O)Cc2ccc(-c3ccoc3)c(OC)c2C(=O)O)c1 [3-(Furan-3-yl)-6-(3-methoxybenzenesulphonylmethyl)-2-methoxybenzoic acid],< 5.70
9,CCc1ccc(CS(=O)(=O)c2ccccc2C)c(C(=O)O)c1OC [3-Ethyl-2-methoxy-6-(2-methylbenzenesulphonylmethyl)benzoic acid],5.70 to 6.70
10,CCc1ccc(CS(=O)(=O)c2ccc(F)cc2)c(C(=O)O)c1OC [3-Ethyl-6-(4-fluorobenzenesulphonylmethyl)-2-methoxybenzoic acid],5.70 to 6.70
11,CCc1ccc(C(C)S(=O)(=O)c2ccccc2)c(C(=O)O)c1OC (stereo not drawn) [6-(1-Benzenesulphonylethyl)-3-ethyl-2-methoxy-benzoic acid],5.70 to 6.70
12,COc1c(-c2ccoc2)ccc(CS(=O)(=O)c2ccccc2Cl)c1C(=O)O [6-(2-Chlorobenzenesulphonylmethyl)-3-(furan-3-yl)-2-methoxybenzoic acid],5.70 to 6.70
13,COc1c(-c2ccoc2)ccc(CS(=O)(=O)c2ccccc2F)c1C(=O)O [6-(2-Fluorobenzenesulphonylmethyl)-3-(furan-3-yl)-2-methoxybenzoic acid],5.70 to 6.70
14,COc1c(-c2ccoc2)ccc(CS(=O)(=O)c2cccc(Cl)c2)c1C(=O)O [6-(3-Chlorobenzenesulphonylmethyl)-3-(furan-3-yl)-2-methoxybenzoic acid],> 6.70
15,COc1c(-c2ccoc2)ccc(CS(=O)(=O)c2cccc(F)c2)c1C(=O)O [6-(3-Fluorobenzenesulphonylmethyl)-3-(furan-3-yl)-2-methoxybenzoic acid],> 6.70
16,"COc1c(-c2ccoc2)ccc(CS(=O)(=O)N2CCC(F)(F)CC2)c1C(=O)O [6-(4,4-Difluoropiperidine-1-ylsulphonylmethyl)-3-(furan-3-yl)-2-methoxybenzoic acid]",> 6.70
17,CCc1ccc(CS(=O)(=O)c2ccc(Cl)cc2)c(C(=O)O)c1OC [6-(4-Chlorobenzenesulphonylmethyl)-3-ethyl-2-methoxy-benzoic acid],< 5.70
18,COc1c(-c2ccoc2)ccc(CS(=O)(=O)c2ccc(F)cc2)c1C(=O)O [6-(4-Fluorobenzenesulphonylmethyl)-3-(furan-3-yl)-2-methoxybenzoic acid],> 6.70
19,COc1c(-c2ccoc2)ccc(CS(=O)(=O)N2C3CCC2CC3)c1C(=O)O [6-(7-Azabicyclo[2.2.1]heptane-7-ylsulphonylmethyl)-3-(furan-3-yl)-2-methoxybenzoic acid],5.70 to 6.70
20,COc1c(-c2ccoc2)ccc(CS(=O)(=O)N2C3CCCC2CC3)c1C(=O)O [6-(8-Azabicyclo[3.2.1]octane-8-ylsulphonylmethyl)-3-(furan-3-yl)-2-methoxybenzoic acid],< 5.70
21,CCc1ccc(C[S+]([O-])c2ccccc2)c(C(=O)O)c1OC (stereo not drawn) [6-(Benzenesulphinylmethyl)-3-ethyl-2-methoxy-benzoic acid],< 5.70
22,CN(C)CCOc1c(-c2ccoc2)ccc(CS(=O)(=O)c2ccccc2)c1C(=O)O [6-(Benzenesulphonylmethyl)-2-(2-dimethylaminoethoxy)-3-(3-furanyl)benzoic acid hydrochloride],< 5.70

# From US9067905B2, “Sulphone compounds and methods of making and using same” (Zafgen, Inc., priority 2009, dated 2015)
